Several values for one entry are separate records, joined by “and”; a condition that tells them apart may be missing. Equal values may be shown once. Read-outs that look alike come from different tables or passages of the source.
Legend:
[1] = tested on: E2-induced ERE-luciferase activity in T47D-KBluc cells; assay: ERE-luciferase reporter in T47D-KBluc cells, antagonist assessment (presence of 0.1 nM E2); type: cell-based; settings: Homo sapiens
Procedure: (§1) Lactols (5) and (6) were tested as a mixture of the two epimers obtained.
Chemical screening was carried out by using T47D-KBluc cells, an ER+ BC cell line that is stably transfected with the pGL2.TATA.Inr.Luc.neo containing three ER-responsive elements (ERE). The T47D-KBluc cells were maintained in standard growth media as detailed above. Dosing media was further modified by reduction of DCC-FBS to 5%. […] Chemical screening was also carried out by using the triple negative BC cell line MDA-kb2 cells that stably expresses pMMTV.neo.luc gene, an AR- and GR-responsive reporter gene. […] The T47D-KBluc cells or the MDA-kb2 cells were seeded at 100,000 cells per well in 24-well plates (Nunclon, Sigma-Aldrich, Darmstadt, Germany ) and allowed to attach overnight. […] Then, the cells were harvested in 100 µL passive lysis buffer (Promega, Madison, WI, USA) per well. The relative light units (RLUs), which correspond to luciferase activity from each sample, were measured by using Luciferase Assay Reagent (Promega) in a Clarity luminescence microplate reader (BIOTEK, Winooski, VT, USA). The RLUs from each sample were normalized by protein concentration and converted to fold induction with respect to vehicle-treated control. […] Then, the percent of efficacy (E) of each tested compound, as compared with Emax, was calculated. […] Data are expressed as mean ± SEM of triplicate independent experiments, where each treatment was assayed in triplicate. […] Duplicate plates were dosed in parallel to control the effects of compounds on cell viability. The protein concentration was measured in cell lysate using colorimetric assay reagent (BioRad, CA, USA).

T47D cells = assay: MTT cell viability, E2-depleted T47D cells; type: cell-based, human; settings: 10 μM, 24 h, absence of E2
Procedure: The effects of lignan derivatives were evaluated on human ER+ BC cells.
Cells were maintained in RPMI (Lonza, Basel, Switzerland) growth media, without phenol red, supplemented with 10% fetal bovine serum (FBS) (Lonza), 2 mM glutamine, 10 mM HEPES, 1 mM sodium pyruvate, 100 UI/mL penicillin and 100 μg/mL streptomycin. Cells were growth in a humidified incubator with 5% CO2 at 37 °C.
The cells were maintained in standard growth media as detailed above and seeded at exponential growth density (6000 cells per well) in 96-well plates (BD Falcon, France). The cells were then treated with vehicle or tests compounds (from 0.01 μM to 10 μM) for 24–72 h. The mitochondrial metabolization of the tetrazolium salt 3-(4,5-methyltiazol-2yl-)-2,5diphenyl-tetrazolium bromide] (MTT) (Applichen, Darmstadt, Germany) was used as an indicator of cell viability.
Figure 6 Effects of lignans on ER+ breast cancer cell viability. […] Then, the mitochondrial metabolization of MTT was used as an indicator of cell viability, as described in the Material and Methods. Data are expressed as mean ± SEM for at least three independent experiments, where each concentration is tested in triplicate. * p < 0.05, ** p < 0.01, and *** p < 0.001 versus VEH-treated cells.

rhERα-LBD = molecular target: T1, rhERα-LBD (Homo sapiens, UniProt P03372); assay: LanthaScreen TR-FRET competitive binding assay; settings: 10-point competition curves, Mean ± SE
T1 sequence (P03372 311-547 limits assumed): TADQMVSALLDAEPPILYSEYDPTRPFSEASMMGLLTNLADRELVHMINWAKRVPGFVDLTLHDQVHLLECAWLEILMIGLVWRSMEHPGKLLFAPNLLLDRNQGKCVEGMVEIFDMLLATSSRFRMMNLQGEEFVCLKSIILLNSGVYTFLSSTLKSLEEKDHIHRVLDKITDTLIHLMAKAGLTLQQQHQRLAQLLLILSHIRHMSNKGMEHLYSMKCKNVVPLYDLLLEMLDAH
Procedure: Next, the binding of lignan derivatives to the LBD of rhERα was analyzed by using time-resolved fluorescence resonance energy transfer (TR-FRET) competitive binding assay. […] The LanthaScreen^TM TR-FRET Nuclear Receptor (NR) binding assay (SelectScreen^TM Profiling Service, Life Technologies, Carlsbad, CA, USA) was used for screening of potential binding of lignan derivatives to human ERα [33]. Briefly, the kit uses the recombinant human ERα (rhERα) protein and a tight binding, selective fluorescent ligand, Fluormone^TM tracer. […] The rhERα protein and the tracer form rhERα/tracer complex, resulting in a high FP value. […] Dose-response competition curves were fitted by nonlinear regression analyses in the GraphPad software 8 (GraphPad Software, San Diego, CA, USA) to obtain IC50 values.
Data are expressed as mean ± SEM for from at least three independent experiments, where each concentration is tested in triplicate.

[2] = tested on: ER-dependent transcriptional activity in T47D-KBluc cells; assay: ERE-luciferase reporter in T47D-KBluc cells, agonist assessment (absence of E2); type: cell-based, human; set-up: Emax: dose or concentration left out as unconfirmed; settings: for Emax: Homo sapiens, read-out: E/Emax (%) VEH; for E/Emax (%) VEH: lignans 5 μM, absence of E2 (VEH), relative to Emax induced by 0.1 nM E2, Mean ± SEM
Procedure: as §1
Chemical screening was carried out by using T47D-KBluc cells, an ER+ BC cell line that is stably transfected with the pGL2.TATA.Inr.Luc.neo containing three ER-responsive elements (ERE). The T47D-KBluc cells were maintained in standard growth media as detailed above. Dosing media was further modified by reduction of DCC-FBS to 5%. […] Chemical screening was also carried out by using the triple negative BC cell line MDA-kb2 cells that stably expresses pMMTV.neo.luc gene, an AR- and GR-responsive reporter gene. […] The T47D-KBluc cells or the MDA-kb2 cells were seeded at 100,000 cells per well in 24-well plates (Nunclon, Sigma-Aldrich, Darmstadt, Germany ) and allowed to attach overnight. Then, the media was replaced with 1 mL/well of dosing media and test compounds incubated 24 h. Then, the cells were harvested in 100 µL passive lysis buffer (Promega, Madison, WI, USA) per well. The relative light units (RLUs), which correspond to luciferase activity from each sample, were measured by using Luciferase Assay Reagent (Promega) in a Clarity luminescence microplate reader (BIOTEK, Winooski, VT, USA). The RLUs from each sample were normalized by protein concentration and converted to fold induction with respect to vehicle-treated control. […] Then, the percent of efficacy (E) of each tested compound, as compared with Emax, was calculated. […] Data are expressed as mean ± SEM of triplicate independent experiments, where each treatment was assayed in triplicate. […] Duplicate plates were dosed in parallel to control the effects of compounds on cell viability. The protein concentration was measured in cell lysate using colorimetric assay reagent (BioRad, CA, USA).

[3] = read-out: IC50 (reduction of E2-induced Emax), lignans 1 μM to 10 μM, 1 h before 0.1 nM E2 for 18 h, predicted by nonlinear regression, Mean ± SE
[4] = read-out: IC50 (inhibition of Fluormone tracer binding to rhERα)

Structure (SMILES)	reduction of cell viability (T47D cells)	IC50 (rhERα-LBD; [4])	Emax [2] [%]	E/Emax (%) VEH [2]	also measured
COc1ccc(C[C@H]2COC[C@@H]2Cc2ccc(O)c(O)c2)cc1OC [Compound 11]	reduced cell viability	0.5 ± 0.17 µM	12.1 ± 4.33	weak estrogenic activity	IC50 [1, 3]: < 20 µM
COc1ccc(C[C@H]2C(=O)OC[C@@H]2Cc2ccc3c(c2)OCO3)cc1OC [Compound 1, (−)-Bursehernin]	reduced cell viability		17.6 ± 5.4		IC50 ([1]; lignans 1 μM to 10 μM, 1 h before 0.1 nM E2 for 18 h, predicted by nonlinear regression, Mean ± SE, read-out: IC50 (reduction of E2-induced Emax)): < 20 µM; IC50 (rhERα-LBD; IC50 (inhibition of Fluormone tracer binding to rhERα)): 0.39 ± 0.19 µM
CC/C(=C(\c1ccc(O)cc1)c1ccc(OCCN(C)C)cc1)c1ccccc1 [Compound 4-OHTAM, 4-hydroxytamoxifen, reference compound]					IC50 ([1]; read-out: IC50 (abolition of E2 effect by coincubation), antiestrogen coincubated with E2): 0.38 ± 0.009 µM
COc1ccc(C[C@H]2C(O)OC[C@@H]2Cc2ccc3c(c2)OCO3)cc1OC (mixture of isomers) [Compound 5, (3R,4R)-4-(Benzo[d][1,3]dioxol-5-ylmethyl)-3-(3,4-dimethoxybenzyl) Tetrahydro Furan-2-ol]		3.24 ± 2.03 µM	22.7 ± 4.26	weak estrogenic activity	
COc1ccc(C[C@H]2COC[C@@H]2Cc2ccc(OC)c(OC)c2)cc1OC [Compound 10, (3R,4R)-3,4-Bis(3,4-dimethoxybenzyl)tetrahydrofuran]			3.91 ± 1.55		
COc1ccc(C[C@@H](CO)[C@H](CO)Cc2ccc3c(c2)OCO3)cc1OC [Compound 7, (2R,3R)-2-(Benzo[d][1,3]dioxol-5-ylmethyl)-3-(3,4-dimethoxybenzyl)butane-1,4-diol]		4 ± 1.6 µM	13.1 ± 2.58		
COc1ccc(C[C@H]2COC(O)[C@@H]2Cc2ccc(OC)c(OC)c2)cc1OC (mixture of isomers) [Compound 6, (3R,4R)-3,4-Bis(3,4-dimethoxybenzyl)tetrahydrofuran-2-ol]	16.6%		5.86 ± 0.84		
COc1ccc(C[C@@H](COS(C)(=O)=O)[C@H](COS(C)(=O)=O)Cc2ccc3c(c2)OCO3)cc1OC [Compound 12, (2R,3R)-2-(Benzo[d][1,3]dioxol-5-ylmethyl)-3-(3,4-dimethoxybenzyl)butane-1,4-diyl Dimethanesulfonate]	reduced cell viability		22.2 ± 3.89	weak estrogenic activity	
COc1ccc(C[C@H]2C(=O)OC[C@@H]2Cc2ccc(O)c(O)c2)cc1OC [Compound 4, (3R,4R)-4-(3,4-Dihydroxybenzyl)-3-(3,4-dimethoxybenzyl)dihydrofuran-2(3H)-one]		6 µM and 6.04 µM	15.8 ± 2.15		IC50 [1, 3]: > 10 µM
C[C@]12CC[C@@H]3c4ccc(O)cc4CC[C@H]3[C@@H]1CC[C@@H]2O [Compound E2, 17β-estradiol, reference compound]			100 ± 11.3		
COc1ccc(C[C@@H](CO)[C@H](CO)Cc2ccc(OC)c(OC)c2)cc1OC [Compound 8, (2R,3R)-2,3-Bis(3,4-dimethoxybenzyl)butane-1,4-diol]	reduced cell viability		9.41 ± 1.88		
O=C1OC[C@@H]2Cc3cc(O)c(O)cc3-c3cc(O)c(O)cc3C[C@@H]12 [Compound 16, (3aR,13aR)-6,7,10,11-Tetrahydroxy-3a,4,13,13a-tetrahydrodibenzo [4,5:6,7] Cycloocta [1,2-c]Furan-1(3H)-One]			11.3 ± 3.47		
COc1ccc(C[C@H]2COC[C@@H]2Cc2ccc3c(c2)OCO3)cc1OC [Compound 9]	55.6%	8 µM and 7.65 µM	23.8 ± 6.34	weak estrogenic activity	
COc1ccc(C[C@@H](C)[C@H](C)Cc2ccc3c(c2)OCO3)cc1OC [Compound 13, 5-((2R,3R)-4-(3,4-Dimethoxyphenyl)-2,3-dimethylbutyl)benzo[d][1,3]dioxole]	reduced cell viability	5.02 ± 1.54 µM	16.7 ± 3.37		
COc1cc2c(cc1OC)-c1cc(O)c(O)cc1C[C@H]1COC(=O)[C@@H]1C2 [Compound 15, (3aR,13aR)-6,7-Dihydroxy-10,11-dimethoxy-3a,4,13,13a-tetrahydro Dibenzo [4,5:6,7]Cycloocta [1,2-c]Furan-1(3H)-one]			15.6 ± 5.66		
O=C1OC[C@H](Cc2ccc(O)c(O)c2)[C@H]1Cc1ccc(O)c(O)c1 [Compound 3, (3R,4R)-3,4-Bis(3,4-dihydroxybenzyl)dihydrofuran-2(3H)-one]		0.6 ± 0.11 µM	24.5 ± 6.53	weak estrogenic activity	
